Test [1] concerns Honeybees. Briefly: Long term Apidea experiment with bees fed a multiplicity of sterols. As to conditions: diet with isofucosterol and multiplicity of sterols; cycles of 21 days. It counts as in vivo, honeybee. Here is the method: Honeybees: Fully functional insulated styrofoam Apidea™ nucs comprised 3-5 mini frames populated with adult workers and 1 mated laying queen bee were populated with 300-400 ml of young adult workers (˜N<1,000 bees of mixed ages).
Each treatment was tested with 3-6 colonies, each colony was fed ad libitum with the solid diet on the top feeder fitted with a mesh floor, and the quantity consumed was assessed at every feeding. The number of capped brood cells was assessed every 12 days. The number of bee seams was recorded during each inspection. If the colony reaches maximal size for the Apidea box, a super is added. Sugar syrup (34%) and water was provided in feeders inside the tent to prevent carbohydrate starvation and to stimulate foraging activity.
In Example 4A, bees were fed with a diet containing 15-30% protein, 4-12% fat, 1% vitamins/minerals and >40% carbohydrates (Diet 1). […]
FIG. 4—results of experiment 4A: Mean area of sealed brood (cm2) assessed every 12 days over a 15-week period. […]

Test [2] concerns Honeybees. Briefly: Brood production in APIDEA nuc colonies. In kind it is in vivo, honeybee. The conditions noted are these: pollen-free diet with isofucosterol vs isofucosterol-free diet, increasing concentration. Here is the method: Honeybees: Fully functional insulated styrofoam APIDEA nucs comprised 5 mini frames populated with adult workers and 1 mated laying queen bee were populated with 300-400 ml of young adult workers (˜N<1,000 bees of mixed ages).
Each treatment was tested with 3-6 colonies; each colony was fed with a 60-100 g patty (solid diet) on the top feeder fitted with a mesh floor. Diet was fed on the first day and again on day 6; the quantity consumed was measured on day 6 and day 15. If no larvae or eggs/queen are observed by day 6 then the experiment is terminated. The number of capped brood cells was counted on day 15. The number of bee seams was estimated during each inspection. Sugar syrup (34%) and water was provided in feeders inside the tent to prevent carbohydrate starvation and to stimulate foraging activity.
In Example 3, bees were fed with a diet containing 10-18% protein, 6% fat, 1% vitamins/minerals and >75% carbohydrates.
As the concentration of isofucosterol increased, the amount of brood produced in each colony increased (N>3 colonies/treatment). The pupae, and the number of new adults was counted over the entire 10-week period.

The test system of a further test is Black soldier flies. Briefly: Black soldier fly feeding experiments. In kind it is in vivo, Hermetia illucens. As for the experimental part: Adult survival and number of egg masses laid from a population fed with a pollen substitute diet (as specified in US2019/0090507 to Apix Biosciences) was measured daily using the methods of rearing described in Thinn and Kainoh 2022. JARQ 56 (2), 211-217 (2022). […] Black soldier fly (BSF) larvae were fed with a diet containing 22% protein, 4% fat as described in Hogsette 1992. J. Econ. Entomol. 85(6): 2291-2294 until ecclosion. Sterols were sourced as pure compounds added directly to diet to a total quantity of 0.1%. […] J. Entomol. 118: 297-306, 2021. […] Sterols were added to diet. Measurement of sterols in tissues was performed after saponification of BSF tissues using GC-MS as described in Boukid et al. 2022. Insects 12, 672.

Test [3] has as its system adult worker honeybees (Apis mellifera) or adult worker bumblebees (Bombus terrestris). Briefly: Two-choice preference assay, diet with or without isofucosterol. In kind it is in vivo. As to conditions: choice of diet with or without isofucosterol, 5 days, FIG. 1. As for the experimental part:
One treatment diet contained the isofucosterol and the other contained no sterol. Newly emerged bees were removed from the brood frame and cohorts of 30 bees per replicate were housed in plastic rearing cages. In all experiments, 10 cohorts of ˜30 bees each were used for each treatment group. […] Consumption of each diet was measured every 24 h for 5 days. Preference index was calculated as (amount of treatment consumed−amount of control consumed)/(total amount of food consumed). In Example 1, cohorts of bees were given a choice of diet with or without isofucosterol.

In the next test the test system is adult worker honeybees. Briefly: Survival of cohorts of bees on diets containing isofucosterol. It counts as in vivo, honeybee. As to conditions: pollen-free diet with isofucosterol vs isofucosterol-free diet. Here is the method:
Newly emerged adult worker honeybees fed with a diet treatment and ad libitum access to water. The treatment diet contained the isofucosterol. Newly emerged bees were removed from the brood frame and cohorts of 30 bees per replicate were housed in plastic rearing cages. In all experiments, 10 cohorts of ˜30 bees each were used for each treatment group. In all diet's carbohydrate was maintained at 60% using sucrose and fat was maintained at 8%. Consumption of each diet was measured every day over the course of the experiment. The number of bees alive in the box was counted each day for 14 days.
Example 2 represents the survival of cohorts of bees confined to feed on diets containing specific concentrations of isofucosterol (0%, 0.5% and 1% weight of diet), as shown in FIG. 2.

`C/C=C(/CC[C@@H](C)[C@H]1CC[C@H]2[C@@H]3CC=C4C[C@@H](O)CC[C@]4(C)[C@H]3CC[C@]12C)C(C)C` [isofucosterol, Isofucosterol]: the “brood production / brood development supported” value in the test on Honeybees [1] is reported as “more than 4 cycles”. Further, the results for the bee brood production result in the test on Honeybees [2] and in the test with Honeybees [2] (listed as Isofucosterol) were “increased” and “increases”, respectively. Besides, the “egg laying and egg hatching performance and adult longevity” value in the test with Black soldier flies (cultivated Black Soldier Fly or beetle adults fed diet containing isofucosterol) is listed as “improves”. Moreover, in the test with Black soldier flies (isofucosterol delivered through a pollen-free diet), the “performance of adult and larval BSF” value is recorded as “increases the performance”. Moreover, in test [3], the “isofucosterol concentration in the diet that bees preferred to consume” value is “at least 0.05%”. Further, the “survival of worker bees” value in the test with adult worker honeybees is recorded as “increases”.

The values above are taken from patent US20240315283A1, “ISOFUCOSTEROL A KEY NUTRIENT FOR PHYTOSTEROL EATING ANIMALS SUCH AS POLLEN EATING AND ALGAE-EATING AND PLANKTON EATING ORGANISMS” (APIX BIOSCIENCES, priority 2021, published 2024).
